What all share (experiment): inhibition of tumour cell growth, NCI panel, 48 h
Assay [1] has as its system A498.
Assay [2] has as its system CAKI-1.
Assay [3] deals with KM-20L2.
Assay [4] deals with M14.
The subject of assay [5] is M19-MEL.
Assay [6] has as its system NCI-H23.
Assay [7] has as its system OVCAR-3.
Assay [8] concerns SK-OV-3.
Assay [9] deals with SNB-78.
The subject of assay [10] is SR.
The subject of assay [11] is SW-620.
Assay [12] deals with TK-10.
The test system of assay [13] is U-251.
Assay [14] has as its system UO-31.
The test system of assay [15] is HOP-92.
For assay [16], the system named is LOX IMVI.
Assay [17] deals with 786-0.

13 compounds from ChEMBL document CHEMBL1201862, “PubChem BioAssay data set” (2004) can be followed below.

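1) Cells in 96-well plates. 2) Compound, 48 h, 5 concentrations. 3) Linear interpolation between surrounding doses. 4) Unreached endpoint = highest concentration. Here, GI50 denotes the concentration required for 50% inhibition of growth.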 The source made the active and inactive calls. Cut-off read from the data, not from the text of the source: active = GI50 up to about 1.1 µM and inactive = higher. Bounds are passed on as bounds.

Regarding `CN1C(=N\S(=O)(=O)c2ccc(Cl)cc2)/C(=N/N=P(c2ccccc2)(c2ccccc2)c2ccccc2)c2ccccc21`, the GI50 in assay [1], in assay [2], in assay [3], in assay [4], in assay [5] and in assay [6] was > 100 µM (inactive) in each case. In addition, the GI50 in assay [7], in assay [8], in [9], in assay [10], in assay [11] and in assay [12] was > 100 µM (inactive) throughout. Besides, the GI50 in [13] and in assay [14] was > 100 µM (inactive) in each case.
With `Cc1ccc(Oc2ccc(C)cc2[N+](=O)[O-])cc1`, the GI50 was > 100 µM (inactive) in assay [1]; 28.6 µM (inactive) in assay [15]; > 100 µM (inactive) in assay [3]; 40.1 µM (inactive) in [16]; 96.6 µM (inactive) in [4]; 79.4 µM (inactive) in assay [5]. Moreover, the GI50 is 31.5 µM (inactive) in assay [6]; 55.8 µM (inactive) in assay [7]; > 100 µM (inactive) in assay [8]; 31.6 µM (inactive) in [9]; 33.7 µM (inactive) in assay [10]; > 100 µM (inactive) in [11]. In addition, the GI50 in assay [12] is > 100 µM (inactive); in assay [13], 25.8 µM (inactive); in assay [14], 29.2 µM (inactive).
For the compound `CC(=O)Nc1ccc(-c2nnc(SCC(=O)Nc3ccccc3)o2)cc1`, the GI50 was > 100 µM (inactive) in assay [17]; > 100 µM (inactive) in assay [2]; > 100 µM (inactive) in assay [15]; > 100 µM (inactive) in [3]; 33.5 µM (inactive) in [16]; 86.3 µM (inactive) in assay [4]. The GI50 in assay [5] was 74.8 µM (inactive); in assay [6] it was 39.5 µM (inactive); in assay [7] it was > 100 µM (inactive); in [8], > 100 µM (inactive); in assay [9] it was 80 µM (inactive); in [10], > 100 µM (inactive). In addition, the GI50 in assay [11] was > 100 µM (inactive); in assay [12], > 100 µM (inactive); in assay [13] it was 43.7 µM (inactive); in assay [14] it was 79.6 µM (inactive).
With `COC(=O)C1CC2(c3ccccc3)C(=O)c3ccccc3N2O1` (centres undefined), the GI50 in assay [17] is 35.4 µM (inactive); in assay [1], > 100 µM (inactive); in assay [2], 36.5 µM (inactive); in assay [15], 49.5 µM (inactive); in [3], > 100 µM (inactive); in [16] it was 26.1 µM (inactive). The GI50 in [4] was > 100 µM (inactive); in assay [5], 64.4 µM (inactive); in [6] it was > 100 µM (inactive); in assay [7], 70.6 µM (inactive); in assay [8], > 100 µM (inactive); in [9], > 100 µM (inactive). Besides, the GI50 in [10] was 18.9 µM (inactive); in [11] it was 39.3 µM (inactive); in assay [12], > 100 µM (inactive); in assay [13], 69.2 µM (inactive).
As for `O=P(c1ccccc1)(c1ccccc1)C1CC=C(c2ccccc2)C2(CCCC2)C1` (centres undefined), the GI50 in assay [17] was 98.9 µM (inactive); in assay [1] it was 74.8 µM (inactive); in [2], 40.6 µM (inactive); in [15], 12.5 µM (inactive); in assay [3], 33.7 µM (inactive); in assay [16] it was 31.3 µM (inactive). The GI50 in [4] was 43.3 µM (inactive); in assay [5], 43.7 µM (inactive); in assay [6], 9.44 µM (inactive); in assay [7], 49.1 µM (inactive); in assay [8], > 100 µM (inactive); in [9] it was > 100 µM (inactive). Moreover, the GI50 in assay [11] is 81.3 µM (inactive); in assay [12] it was 72.3 µM (inactive); in assay [13] it was 94 µM (inactive); in assay [14] it was 25.3 µM (inactive).
For `[O-]c1on[n+]2c1c(Nc1ccc(Cl)cc1)nc1ccccc12`, the GI50 in assay [17], in [1], in [15], in [3], in assay [16] and in assay [4] was > 100 µM (inactive) in each case. In addition, the GI50 in [5], in [6], in assay [7], in assay [8], in [9] and in [10] was > 100 µM (inactive) throughout. In addition, the GI50 in [11], in assay [12], in assay [13] and in [14] was > 100 µM (inactive) in each case.
In the case of `Cc1ccc(/C=C/C(=O)c2ccc([N+](=O)[O-])cc2)cc1`, the GI50 in [17] is > 100 µM (inactive); in assay [1] it was 0.815 µM (active); in assay [2], > 100 µM (inactive); in assay [3], > 100 µM (inactive); in [16], > 100 µM (inactive); in assay [4] it was > 100 µM (inactive). The GI50 in assay [5] is > 100 µM (inactive); in assay [6], 30.9 µM (inactive); in [7], > 100 µM (inactive); in assay [8], > 100 µM (inactive); in [9], > 100 µM (inactive); in assay [10], 79.1 µM (inactive). Besides, the GI50 in [11] was > 100 µM (inactive); in assay [12], > 100 µM (inactive); in [13], 21.2 µM (inactive); in [14], 59.4 µM (inactive).
As to `Cc1ccc(NC(=O)/C(CC(=O)c2c[n+]([O-])c3ccccc3[n+]2[O-])=N\NC(=O)C[n+]2ccccc2)cc1`, the GI50 in assay [17], in [1], in assay [2], in [3], in assay [16] and in assay [4] was > 100 µM (inactive) each time. The GI50 in assay [5], in [7], in assay [8], in assay [9], in assay [10] and in [11] was > 100 µM (inactive) throughout. Further, the GI50 in assay [12], in [13] and in assay [14] was > 100 µM (inactive) throughout.
Turning to `COC(=O)Cc1cc(=O)n2c([nH]c3ccccc32)c1C#N`, the GI50 in [17], in assay [1], in assay [2], in assay [3], in [16] and in assay [4] was > 100 µM (inactive) each time. Further, the GI50 in assay [5] is > 100 µM (inactive); in [6] it was > 100 µM (inactive); in [7], > 100 µM (inactive); in assay [8], 36.1 µM (inactive); in assay [9], > 100 µM (inactive); in assay [10], > 100 µM (inactive). Further, the GI50 in assay [11] is > 100 µM (inactive); in assay [12], > 100 µM (inactive); in assay [13] it was 49.3 µM (inactive); in assay [14], 61 µM (inactive).
Take `Cc1cc(Cl)ccc1NC(=O)CCCC(=O)C(C(=O)c1ccccc1)c1ccccc1` (centres undefined): the GI50 in assay [17], in assay [1], in [2], in assay [15], in assay [3] and in [16] was > 100 µM (inactive) in each case. Further, the GI50 in assay [4], in assay [5], in assay [6], in assay [7], in [8] and in [9] was > 100 µM (inactive) throughout. In assay [13], the GI50 is > 100 µM (inactive).
`C/C=C1/C(=Cc2[nH]c(C=c3[nH]/c(=C/C4=NC(=O)C(CC)=C4C)c(C)c3CCC(=O)O)c(CCC(=O)O)c2C)NC(=O)C1C` (centres undefined): the GI50 is 2.41 µM (inactive) in assay [17]; 16.4 µM (inactive) in [2]; 0.0173 µM (active) in assay [15]; 2.03 µM (inactive) in assay [3]; 1.04 µM (active) in assay [16]; 1.87 µM (inactive) in [4]. Moreover, the GI50 is 10.9 µM (inactive) in [5]; 21.5 µM (inactive) in assay [6]; 27.5 µM (inactive) in assay [7]; 42.1 µM (inactive) in assay [8]; 11.5 µM (inactive) in assay [9]; 4.37 µM (inactive) in [10]. Further, the GI50 in assay [11] was 2.96 µM (inactive); in assay [12], > 50 µM (inactive); in assay [13], 7.48 µM (inactive); in assay [14] it was 8.24 µM (inactive).
With `Cc1nc(-n2nc(-c3ccccc3)cc2-c2ccccc2)sc1C(=O)/C=C/c1ccc(Cl)c(Cl)c1`, the GI50 was 15.7 µM (inactive) in assay [17]; 24.8 µM (inactive) in assay [2]; 12.2 µM (inactive) in assay [3]; 13.1 µM (inactive) in assay [16]; 17.6 µM (inactive) in [4]; 51.6 µM (inactive) in assay [5]. The GI50 is 49.2 µM (inactive) in assay [6]; 15.9 µM (inactive) in [7]; > 100 µM (inactive) in assay [8]; 15.6 µM (inactive) in assay [9]; 17.2 µM (inactive) in [10]; 21.5 µM (inactive) in assay [11]. For the same compound, the GI50 is 43.2 µM (inactive) in [12], 11.6 µM (inactive) in assay [13] and 10.6 µM (inactive) in assay [14].
On to `O=c1ccc2ccccc2o1` [COUMARIN], for which the GI50 in [17], in assay [1], in [15], in assay [3], in assay [16] and in assay [4] was > 100 µM (inactive) throughout. Further, the GI50 in [5], in assay [6], in assay [7], in assay [8], in assay [9] and in assay [11] was > 100 µM (inactive) in each case. Also, the GI50 in assay [12], in assay [13] and in [14] was > 100 µM (inactive) throughout.
